Read-outs that look alike come from different tables or passages of the source.
Tests used:
[1] = system: T24 bladder cancer cell line; test: CellTiter-Glo viability assay, T24; format: cell-based; conditions: FGFR3 status WT, 72 hours, read-out: Ganetespib IC50
Protocol: (§1) Cellular viability was assessed using the CellTiter-Glo Luminescent Cell Viability Assay (Promega) according to manufacturer protocols. Bladder cancer cell lines were seeded into 96-well plates based on optimal growth rates determined empirically for each line. Twenty-four hours after plating, cells were dosed with graded concentrations of ganetespib for 72 hours. CellTiter-Glo was added (50% v/v) to the cells, and the plates incubated for 10 minutes prior to luminescent detection in a SpectraMax Plus 384 microplate reader (Molecular Devices). Data were normalized to percent of control and IC50 values used to determine the sensitivity of each line. For the comparative analyses with ganetespib and BGJ398, RT112 cells were treated with graded concentrations of each compound for 72 hours and cell viability measured as above. For the evaluation of apoptotic induction, caspase activity was assessed using the Caspase-Glo 3/7 assay (Promega) according to manufacturer protocols. Twenty-four hours after plating, RT112 cells were treated with graded concentrations of ganetespib for 24 hours. Caspase-Glo was added to cells (50% v/v) and the plates incubated for 1 hour prior to luminescent detection.

[2] = system: UM-UC3 bladder cancer cell line; test: CellTiter-Glo viability assay, UM-UC3; format: cell-based; conditions: Homo sapiens, UMUC3, FGFR3 status WT, 72 hours, read-out: Ganetespib IC50
Protocol: as §1

[3] = system: RT4 bladder cancer cell line; test: CellTiter-Glo viability assay, RT4; format: cell-based
Protocol: as §1

[4] = system: SCaBER bladder cancer cell line; test: CellTiter-Glo viability assay, SCaBER; format: cell-based; conditions: Homo sapiens, FGFR3 status WT, 72 hours, read-out: Ganetespib IC50
Protocol: as §1

[5] = weekly dosing regimen; cited from earlier work
[6] = system: LB831-BLC bladder cancer cell line; test: CellTiter-Glo viability assay, LB831-BLC; format: cell-based; conditions: FGFR3 status WT, 72 hours, read-out: Ganetespib IC50
Protocol: as §1

[7] = system: FGFR3-TAAC3 in RT112 cells; test: Western blotting of FGFR3-TAAC3 and signaling proteins in RT112 cells; format: cell-based; conditions: 200 nM ganetespib
Protocol: Following in vitro assays, tumor cells were disrupted in lysis buffer on ice for 10 minutes. Lysates were clarified by centrifugation and equal amounts of proteins resolved by SDS-PAGE before transfer to nitrocellulose membranes (Bio-Rad). Membranes were blocked with StartingBlock T20 blocking buffer (Thermo Scientific) and immunoblotted with the indicated antibodies. Antibody-antigen complexes were visualized using an Odyssey system (LI-COR).

[8] = system: RT112 bladder cancer cells; test: Reverse phase protein array analysis in RT112 cells; format: cell-based; conditions: 100 nM ganetespib, 24 hours
Protocol: RT112 cells were treated with dimethyl sulfoxide (DMSO, control) or 100 nM ganetespib for 24 hours. Lysates were prepared as recommended by MD Anderson Cancer Center (Houston, Tex.), arrayed on nitrocellulose-coated FAST slides (Whatman) and probed for a standard list of antibodies.

[9] = system: RT112 bladder cancer cell line; test: CellTiter-Glo viability assay, RT112; format: cell-based; conditions: Homo sapiens
Protocol: as §1

[10] = system: HT29 cells; test: LC-MS/MS bioanalysis of ganetespib in HT29 cells; format: in vitro ADME, human; conditions: 1 μM ganetespib, 8 hr
Protocol: Colon cancer cells were treated with 1 μM ganetespib for 5, 15, 30, 60 or 480 minutes. At each time point, media was collected and cell lysates were generated for subsequent bioanalysis of secreted and intracellular concentrations of ganetespib and its glucuronides. Equal protein concentrations from cell lysates or equal volumes of media were used for the bioanalysis. Samples were extracted by protein precipitation and analyzed by LC-MS/MS using an Agilent 1100 HPLC interfaced to an API 4000 tandem mass spectrometer (Applied Biosystems). A Phenomenex Kinetex 2.6 μm C18 (30×2.1 mm) column was used with a run time of 3.5 min per sample.

[11] = system: TCCSUP bladder cancer cell line; test: CellTiter-Glo viability assay, TCCSUP; format: cell-based; conditions: Homo sapiens, TCC-SUP, FGFR3 status WT, 72 hours, read-out: Ganetespib IC50
Protocol: as §1

[12] = system: SW1463 cells; test: Cell viability assay, SW1463 colorectal cancer cells; conditions: Homo sapiens, read-out: IC50 based on cell viability
Protocol: (§2) 24 hours after transfection, […] were seeded in triplicate in 96-well plates one day before treatment. Cells were treated with inhibitors and drugs for 48 hours and subjected to the CellTiterGlo Luminescent Cell Viability assay (Promega, Madison Wis., USA).

[13] = system: SW780 bladder cancer cell line; test: CellTiter-Glo viability assay, SW780; format: cell-based; conditions: Homo sapiens, FGFR3 status FGFR3-BAIAP2L1, 72 hours, read-out: Ganetespib IC50
Protocol: as §1

[14] = system: 647-V bladder cancer cell line; test: CellTiter-Glo viability assay, 647-V; format: cell-based; conditions: Homo sapiens, FGFR3 status WT, 72 hours, read-out: Ganetespib IC50
Protocol: as §1

[15] = system: 639-V bladder cancer cell line; test: CellTiter-Glo viability assay, 639-V; format: cell-based; conditions: Homo sapiens, FGFR3 status R248C, 72 hours, read-out: Ganetespib IC50
Protocol: as §1

[16] = system: HT-1376 bladder cancer cell line; test: CellTiter-Glo viability assay, HT-1376; format: cell-based; conditions: Homo sapiens, FGFR3 status WT, 72 hours, read-out: Ganetespib IC50
Protocol: as §1

[17] = system: HT29 cells; test: Cell viability assay, HT29 colorectal cancer cells; conditions: Homo sapiens, HT-29, read-out: IC50 based on cell viability
Protocol: as §2

## CC(C)c1cc(-c2n[nH]c(=O)n2-c2ccc3c(ccn3C)c2)c(O)cc1O [ganetespib]
[1]
  IC50: 7 nM
[2]
  IC50: 33 nM
[3]; 72 hours (FIG. 8), read-out: IC50 values
  IC50: > 1000 nM
[3]; FGFR3 status FGFR3-TACC3, 72 hours, read-out: Ganetespib IC50
  IC50: 1730 nM
[4]
  IC50: 10 nM
[5]
  maximally tolerated dose: 150 mg/kg
[6]
  IC50: 34 nM
[7]
  time to destabilization of the FGFR3-TAAC3 fusion and alterations in downstream signaling: ≤ 4 h
[8]; AKT signaling
  Fold Change AKT: −2.4 fold
  Fold Change AKT (pS473): −2.5 fold
  Fold Change GSK3-A/B: −1.5 fold
  Fold Change GSK3-A/B (pS2/S9): −1.8 fold
  Fold Change PDK1: −1.4 fold
  Fold Change PDK1 (pS241): −1.7 fold
[8]; Apoptosis
  Fold Change BIM: +1.4 fold
  Fold Change Caspase 7 (cleaved D198): +2.5 fold
[8]; Cell cycle regulation
  Fold Change CDK1: −1.4 fold
  Fold Change Chk1: −3.2 fold
  Fold Change Cyclin B1: −1.9 fold
  Fold Change Rb (pS807/811): −4.6 fold
  Fold Change p21: +1.4 fold
  Fold Change p27: +1.5 fold
[8]; MAPK pathway
  Fold Change C-RAF: −1.8 fold
  Fold Change MAPK (pT202/Y204): −1.5 fold
  Fold Change MEK1 (pS217/S221): −1.4 fold
  Fold Change P90RSK (pT359/S363): −1.4 fold
  Fold Change Src (pY527): −1.4 fold
[8]; Receptor Tyrosine Kinases
  Fold Change EGFR: −1.5 fold
  Fold Change EGFR (pY1068): −1.9 fold
  Fold Change HER2: −2.2 fold
  Fold Change HER2 (pY1248): −2.2 fold
  Fold Change HER3: −1.6 fold
  Fold Change MET (pY1235): −2.7 fold
[8]; Stress response
  Fold Change HSP70/72: +3.0 fold
  Fold Change HSP90 alpha: +1.6 fold
[8]; Transcription factors
  Fold Change NF-κB p65 (pS536): −2.3 fold
  Fold Change c-Myc: −2.5 fold
[8]; mTOR pathway
  Fold Change 4E-BP1 (pS65): −2.5 fold
  Fold Change P70S6K (pT389): −4.7 fold
  Fold Change PRAS40 (pT246): −1.2 fold
  Fold Change S6 (pS235/S236): −13.2 fold
  Fold Change S6 (pS240/S244): −8.9 fold
  Fold Change TSC1: −1.3 fold
  Fold Change Tuberin: −2.2 fold
  Fold Change mTOR (pS2448): −2.2 fold
[9]; RT-112, 72-hour combination viability assay, single inhibitor, read-out: approximate IC50 concentrations
  IC50: ~9.6 nM
[9]; RT-112, FGFR3 status FGFR3-TACC3, 72 hours, read-out: Ganetespib IC50
  IC50: 9 nM
[10]
  ganetespib present: 13 nM
[11]
  IC50: 142 nM
[12]
  IC50: 100 nM
[13]
  IC50: 3450 nM
[14]
  IC50: 27 nM
[15]
  IC50: 10 nM
[16]
  IC50: 21 nM
[17]
  IC50: 2000 nM

Reference: US20160324863A1, “TARGETED CANCER TREATMENT BY HSP90 INHIBITORS GANETESPIB AND NVP-AUY922” (SYNTA PHARMACEUTICALS CORP., priority 2014, published 2016)
